Test results from ChEMBL document CHEMBL1201862, “PubChem BioAssay data set” (2004).
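96-well plates; 48 h exposure; 5 concentrations. Endpoints by linear interpolation between flanking doses. Not reached: highest tested concentration assigned. GI50 is the concentration that inhibits growth by half.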 Calls of active or inactive are those of the source. Rule as the data show it: active = GI50 up to about 1.1 µM and inactive = higher.

What was measured:
Assay in all cases: NCI-60 cell line screen, 48 h
[1] = test system: LOX IMVI
[2] = test system: ACHN
[3] = test system: SF-268
[4] = test system: U-251
[5] = test system: SR
[6] = test system: KM12
[7] = test system: T47D
[8] = test system: OVCAR-8
[9] = test system: DU-145
[10] = test system: SK-MEL-2
[11] = test system: BT-549
[12] = test system: NCI/ADR-RES
[13] = test system: OVCAR-4
[14] = test system: CAKI-1
[15] = test system: SK-OV-3
[16] = test system: SNB-75
[17] = test system: NCI-H460
[18] = test system: MDA-MB-435
[19] = test system: SN12C
[20] = test system: UACC-257
[21] = test system: SNB-19
[22] = test system: HCT-116
[23] = test system: SK-MEL-28
[24] = test system: M14
[25] = test system: NCI-H23
[26] = test system: HT-29
[27] = test system: SF-539
[28] = test system: OVCAR-3
[29] = test system: Hs-578T
[30] = test system: 786-0
[31] = test system: A549
[32] = test system: SF-295
[33] = test system: UACC-62
[34] = test system: CCRF-CEM
[35] = test system: UO-31
[36] = test system: PC-3
[37] = test system: HCT-15
[38] = test system: MDA-N
[39] = test system: HCC 2998
[40] = test system: A498
[41] = test system: MDA-MB-231
[42] = test system: RPMI-8226
[43] = test system: SK-MEL-5
[44] = test system: SW-620
[45] = test system: MCF7
[46] = test system: HL-60
[47] = test system: HOP-92
[48] = test system: MOLT-4
[49] = test system: RXF 393
[50] = test system: NCI-H226
[51] = test system: K562
[52] = test system: OVCAR-5
[53] = test system: COLO 205
[54] = test system: NCI-H522
[55] = test system: TK-10
[56] = test system: EKVX
[57] = test system: HOP-62
[58] = test system: IGROV-1

COC(=O)C(CCCCN)NC(C)=O.Cc1ccc(C(=O)Nc2ccc(S(=O)(=O)O)c3cc(S(=O)(=O)O)cc(S(=O)(=O)O)c23)cc1NC(=O)c1cccc(NC(=O)Nc2cccc(C(=O)Nc3cc(C(=O)Nc4ccc(S(=O)(=O)O)c5cc(S(=O)(=O)O)cc(S(=O)(=O)O)c45)ccc3C)c2)c1 was tested, and the GI50 [1] was 44.8 µM (inactive), the GI50 [2] was > 50 µM (inactive) and the GI50 [3] was > 50 µM (inactive). For the same compound, the GI50 [4] was > 50 µM (inactive), the GI50 [5] was > 50 µM (inactive) and the GI50 [6] was > 50 µM (inactive). The GI50 [7] was > 50 µM (inactive), the GI50 [8] was > 50 µM (inactive) and the GI50 [9] was > 50 µM (inactive). The GI50 [10] was > 50 µM (inactive), the GI50 [11] was > 50 µM (inactive) and the GI50 [12] was > 50 µM (inactive). The GI50 [13] was 0.5 µM (active), the GI50 [14] was > 50 µM (inactive) and the GI50 [15] was > 50 µM (inactive). For the same compound, the GI50 [16] was > 50 µM (inactive), the GI50 [17] was > 50 µM (inactive) and the GI50 [18] was > 50 µM (inactive). For the same compound, the GI50 [19] was > 50 µM (inactive), the GI50 [20] was > 50 µM (inactive) and the GI50 [21] was > 50 µM (inactive). For the same compound, the GI50 [22] was > 50 µM (inactive), the GI50 [23] was > 50 µM (inactive) and the GI50 [24] was > 50 µM (inactive). For the same compound, the GI50 [25] was > 50 µM (inactive), the GI50 [26] was > 50 µM (inactive) and the GI50 [27] was > 50 µM (inactive). The GI50 [28] was > 50 µM (inactive), the GI50 [29] was > 50 µM (inactive) and the GI50 [30] was > 50 µM (inactive). The GI50 [31] was > 50 µM (inactive), the GI50 [32] was > 50 µM (inactive) and the GI50 [33] was > 50 µM (inactive). For the same compound, the GI50 [34] was > 50 µM (inactive), the GI50 [35] was > 50 µM (inactive) and the GI50 [36] was > 50 µM (inactive). The GI50 [37] was 23.9 µM, the GI50 [38] was > 50 µM (inactive) and the GI50 [39] was > 50 µM (inactive). The GI50 [40] was > 50 µM (inactive), the GI50 [41] was > 50 µM (inactive) and the GI50 [42] was > 50 µM (inactive). The GI50 [43] was > 50 µM (inactive), the GI50 [44] was > 50 µM (inactive) and the GI50 [45] was > 50 µM (inactive). The GI50 [46] was > 50 µM (inactive), the GI50 [47] was > 50 µM (inactive) and the GI50 [48] was > 50 µM (inactive). The GI50 [49] was 37.4 µM (inactive), the GI50 [50] was > 50 µM (inactive) and the GI50 [51] was > 50 µM (inactive). The GI50 [52] was > 50 µM (inactive) and the GI50 [53] was > 50 µM (inactive).

In the case of CCCC(=O)NC1=C(Cl)C(=O)c2ccccc2C1=O, the GI50 [1] is reported as 2.51 µM (inactive), the GI50 [2] is reported as 1.73 µM (inactive) and the GI50 [3] is reported as 6.92 µM (inactive). The GI50 [4] was 3.78 µM (inactive), the GI50 [5] was 1.83 µM (inactive) and the GI50 [6] was 3.01 µM (inactive). For the same compound, the GI50 [54] was 1.13 µM (inactive), the GI50 [7] was 2.25 µM (inactive) and the GI50 [8] was 5.02 µM (inactive). The GI50 [9] was 8.32 µM (inactive), the GI50 [10] was 2.39 µM (inactive) and the GI50 [11] was 5.43 µM (inactive). The GI50 [12] was 3.32 µM (inactive), the GI50 [55] was 4.89 µM (inactive) and the GI50 [13] was 4.51 µM (inactive). The GI50 [14] was 3 µM (inactive), the GI50 [15] was 8.67 µM (inactive) and the GI50 [16] was 5.09 µM (inactive). The GI50 [17] was 3.64 µM (inactive), the GI50 [18] was 3.42 µM (inactive) and the GI50 [19] was 10.8 µM (inactive). For the same compound, the GI50 [20] was 4.29 µM (inactive), the GI50 [21] was 6.89 µM (inactive) and the GI50 [22] was 1.73 µM (inactive). The GI50 [23] was 4.33 µM (inactive), the GI50 [24] was 3.13 µM (inactive) and the GI50 [25] was 3.03 µM (inactive). The GI50 [26] was 8.49 µM (inactive), the GI50 [27] was 2.45 µM (inactive) and the GI50 [28] was 2.29 µM (inactive). For the same compound, the GI50 [29] was 5.25 µM (inactive), the GI50 [30] was 4.53 µM (inactive) and the GI50 [31] was 4.39 µM (inactive). For the same compound, the GI50 [32] was 4.99 µM (inactive), the GI50 [33] was 2.32 µM (inactive) and the GI50 [34] was 1.32 µM (inactive). For the same compound, the GI50 [35] was 2.96 µM (inactive), the GI50 [36] was 3.23 µM (inactive) and the GI50 [37] was 1.68 µM. For the same compound, the GI50 [38] was 4.11 µM (inactive), the GI50 [39] was 4.22 µM (inactive) and the GI50 [56] was 3.72 µM (inactive). The GI50 [40] was 13.3 µM (inactive), the GI50 [41] was 3.94 µM (inactive) and the GI50 [57] was 9.23 µM (inactive). For the same compound, the GI50 [42] was 1.48 µM (inactive), the GI50 [43] was 2.67 µM (inactive) and the GI50 [44] was 1.79 µM (inactive). For the same compound, the GI50 [58] was 5.07 µM (inactive), the GI50 [45] was 2.39 µM (inactive) and the GI50 [46] was 0.145 µM (active). The GI50 [47] was 1.82 µM (inactive), the GI50 [48] was 2.56 µM (inactive) and the GI50 [49] was 1.15 µM (inactive). The GI50 [50] was 7.78 µM (inactive), the GI50 [51] was 2.07 µM (inactive) and the GI50 [52] was 4.59 µM (inactive). The GI50 [53] was 1.89 µM (inactive).
